Assay results reported in patent publication US6737383B1, “Herbicidal oxadiazolidines” (priority 1999, dated 2004).

Columns and labels:
[1] = tested on: Italian ryegrass; experiment: Test E Italian ryegrass; format: in vivo, Lolium multiflorum; conditions: Preemergence; for I. Ryegrass plant response rating (0 to 100 scale): Rate 250 g/ha
[2] = tested on: bamyardgrass; experiment: Test B flood test barnyardgrass; format: in vivo, Echinochloa crus-galli; conditions: for Plant response rating, Barnyardgrass: Rate 250 g/ha, Postemergence (flood test), scale 0 to 10, 0 is no effect, 10 is complete control
Outline: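 Each value is a visual injury score relative to controls, with 10 meaning complete control and 0 no effect. Evaluation took place twelve to sixteen days after the 2-leaf-stage plants were treated and kept in the greenhouse.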

[3] = tested on: rape; experiment: Test B pre/postemergence rape; format: in vivo, Brassica napus; conditions: for Rape plant response rating (0 to 10 scale): 0 is no effect
Outline: (§1)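 Herbicidal effect was estimated by eye on a ten-point control scale after plants spent twelve to sixteen days in a greenhouse following soil or foliar treatment. Foliar sprays targeted plants at one to four leaves; all doses were formulated in a non-phytotoxic solvent with surfactant.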

[4] = tested on: winter wheat; experiment: Test E winter wheat; format: in vivo, Triticum aestivum; conditions: Preemergence; for Wheat (winter) plant response rating (0 to 100 scale): Rate 250 g/ha
[5] = tested on: sandbur; experiment: Test D sandbur; format: in vivo, Cenchrus echinatus; conditions: Preemergence, 0 to 100 scale
Outline: (§2)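 Values are visual plant-response ratings (0 no injury, 100 complete control) recorded 14 to 21 days after herbicide treatment, using a non-phytotoxic solvent mixture containing surfactant. Preemergence applications went to the surface of pots holding freshly sown seed in sandy loam.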

[6] = tested on: wheat; experiment: Test B pre/postemergence wheat; format: in vivo, Triticum aestivum; conditions: for Wheat plant response rating (0 to 10 scale): 0 is no effect
Outline: as §1

[7] = tested on: velvetleaf; experiment: Test B pre/postemergence velvetleaf; format: in vivo, Abutilon theophrasti; conditions: for Velvetleaf plant response rating (0 to 10 scale): 0 is no effect
Outline: as §1

[8] = tested on: Spanishneedles; experiment: Test D Spanishneedles; format: in vivo, Bidens bipinnata; conditions: Preemergence, 0 to 100 scale
Outline: as §2

[9] = tested on: wild oat; experiment: Test E wild oat; format: in vivo, Avena fatua; conditions: Preemergence; for Wild oat plant response rating (0 to 100 scale): Rate 250 g/ha
[10] = tested on: green foxtail; experiment: Test E green foxtail; format: in vivo, Setaria viridis; conditions: Preemergence; for Green foxtail plant response rating (0 to 100 scale): Rate 250 g/ha
[11] = tested on: winter barley; experiment: Test E winter barley; format: in vivo, Hordeum vulgare; conditions: Preemergence; for Barley (winter) plant response rating (0 to 100 scale): Rate 250 g/ha
[12] = tested on: blackgrass; experiment: Test E blackgrass; format: in vivo, Alopecurus myosuroides; conditions: Preemergence; for Blackgrass plant response rating (0 to 100 scale): Rate 250 g/ha
[13] = tested on: winter wheat; experiment: Test E winter wheat; format: in vivo, Triticum aestivum; conditions: Postemergence; for Plant response rating, Wheat (winter): 0 to 100 scale
Outline: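 Plants were grown under normal greenhouse practice; for postemergence, in sandy loam soil mixed 60:40 with potting mix, treated at the 1- to 4-leaf stage. The compound was in a non-phytotoxic solvent carrying a surfactant. After roughly 21 to 28 days plants were scored visually against untreated plants.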

[14] = Rate 62 g/ha, 0 to 100 scale, 0 no effect, 100 complete control
[15] = Rate 125 g/ha, 0 to 100 scale (0 no effect, 100 complete control)
[16] = Postemergence (flood test species), Rate 125 g/ha, scale of 0 to 10 where 0 is no effect and 10 is complete control
[17] = Rate 62 g/ha, Postemergence section, flood test species, scale of 0 to 10 where 0 is no effect and 10 is complete control
[18] = Postemergence, Rate 125 g/ha, scale of 0 to 10 where 0 is no effect and 10 is complete control
[19] = Preemergence, Rate 62 g/ha, scale 0 to 10 (0 no effect, 10 complete control)
[20] = Preemergence, Rate 125 g/ha, 10 is complete control
[21] = Preemergence, Rate 250 g/ha, scale 0 to 10, 0 is no effect, 10 is complete control
[22] = Preemergence, Rate 500 g/ha, scale 0 to 10 (0 no effect, 10 complete control)
[23] = Rate 62 g/ha, Postemergence, scale of 0 to 10 where 0 is no effect and 10 is complete control
[24] = Rate 250 g/ha, Postemergence, scale 0 to 10, 0 is no effect, 10 is complete control
[25] = Rate 500 g/ha, Postemergence, scale 0 to 10
[26] = Rate 64 g/ha, 0 no injury, 100 complete control
[27] = Rate 125 g/ha, 0 no injury, 100 complete control
[28] = Preemergence, Rate 62 g/ha, scale of 0 to 10 where 0 is no effect and 10 is complete control
[29] = Rate 16 g/ha, 0 no injury, 100 complete control
[30] = Rate 32 g/ha, 0 no injury, 100 complete control

Compound: CC(C)N(C(=O)n1oc(=O)n(C)c1=O)c1ccc(F)cc1 [Compound 138]
- Plant response rating, I. Ryegrass [1, 14]: 60
- Plant response rating, I. Ryegrass [1, 15]: 70
- I. Ryegrass plant response rating (0 to 100 scale) [1]: 80
- Barnyardgrass plant response rating [2, 16]: 0
- Barnyardgrass plant response rating ([2]; Rate 31 g/ha, Postemergence section (flood test species), scale 0 to 10): 0
- Barnyardgrass plant response rating [2, 17]: 0
- Plant response rating, Barnyardgrass [2]: 8
- Rape plant response rating [3, 18]: 0
- Rape plant response rating [3, 19]: 7
- Rape plant response rating (0 to 10 scale) [3, 20]: 9
- Rape plant response rating [3, 21]: 10
- Rape plant response rating [3, 22]: 10
- Rape plant response rating [3, 23]: 0
- Plant response rating, Rape [3, 24]: 2
- Rape plant response rating [3, 25]: 7
- Plant response rating, Wheat (winter) [4, 14]: 60
- Plant response rating, Wheat (winter) [4, 15]: 70
- Wheat (winter) plant response rating (0 to 100 scale) [4]: 80
- Sandbur plant response rating [5, 26]: 65
- Sandbur plant response rating [5, 27]: 65
- Plant response rating, Sandbur ([5]; Rate 250 g/ha): 98
- Plant response rating, Sandbur ([5]; Rate 500 g/ha): 100
- Wheat plant response rating [6, 18]: 8
- Wheat plant response rating [6, 19]: 3
- Wheat plant response rating (0 to 10 scale) [6, 20]: 5
- Wheat plant response rating [6, 21]: 6
- Wheat plant response rating [6, 22]: 9
- Wheat plant response rating [6, 23]: 3
- Plant response rating, Wheat [6, 24]: 8
- Wheat plant response rating [6, 25]: 8
- Velvetleaf plant response rating [7, 18]: 4
- Velvetleaf plant response rating [7, 19]: 5
- Velvetleaf plant response rating (0 to 10 scale) [7, 20]: 8
- Velvetleaf plant response rating [7, 21]: 10
- Velvetleaf plant response rating [7, 22]: 10
- Velvetleaf plant response rating [7, 23]: 2
- Plant response rating, Velvetleaf [7, 24]: 4
- Velvetleaf plant response rating [7, 25]: 7
- Spanishneedles plant response rating [8, 26]: 10
- Spanishneedles plant response rating [8, 27]: 10
- Plant response rating, Spanishneedles ([8]; Rate 250 g/ha): 30
- Plant response rating, Spanishneedles ([8]; Rate 500 g/ha): 75
- Plant response rating, Wild oat [9, 14]: 50
- Plant response rating, Wild oat [9, 15]: 60
- Wild oat plant response rating (0 to 100 scale) [9]: 65
- Plant response rating, Green foxtail [10, 14]: 60
- Plant response rating, Green foxtail [10, 15]: 70
- Green foxtail plant response rating (0 to 100 scale) [10]: 75
- Plant response rating, Barley (winter) [11, 14]: 30
- Plant response rating, Barley (winter) [11, 15]: 60
- Barley (winter) plant response rating (0 to 100 scale) [11]: 90
- Plant response rating, Blackgrass [12, 14]: 50
- Plant response rating, Blackgrass [12, 15]: 60
- Blackgrass plant response rating (0 to 100 scale) [12]: 70
- Plant response rating, Wheat (winter) ([13]; Rate 62 g/ha): 60
- Plant response rating, Wheat (winter) ([13]; Rate 125 g/ha): 70
- Wheat (winter) plant response rating ([13]; Rate 250 g/ha, 0 to 100 scale where 0 is no effect and 100 is complete control): 80

Compound: CC(C)N(C(=O)n1oc(=O)n(N(C)C)c1=O)c1ccc(F)cc1 [Compound 170]
- Plant response rating, I. Ryegrass [1, 14]: 60
- Plant response rating, I. Ryegrass [1, 15]: 70
- I. Ryegrass plant response rating (0 to 100 scale) [1]: 70
- Barnyardgrass plant response rating [2, 16]: 0
- Barnyardgrass plant response rating [2, 17]: 0
- Plant response rating, Barnyardgrass [2]: 0
- Barnyardgrass plant response rating ([2]; Rate 500 g/ha, listed under Postemergence (flood test species), scale 0 to 10): 0
- Rape plant response rating [3, 18]: 0
- Rape plant response rating [3, 28]: 2
- Rape plant response rating (0 to 10 scale) [3, 20]: 8
- Rape plant response rating [3, 21]: 10
- Rape plant response rating [3, 22]: 10
- Rape plant response rating [3, 23]: 0
- Plant response rating, Rape [3, 24]: 0
- Rape plant response rating [3, 25]: 3
- Plant response rating, Wheat (winter) [4, 14]: 70
- Plant response rating, Wheat (winter) [4, 15]: 70
- Wheat (winter) plant response rating (0 to 100 scale) [4]: 70
- Plant response rating, Sandbur [5, 29]: 0
- Plant response rating, Sandbur [5, 30]: 0
- Sandbur plant response rating [5, 26]: 40
- Sandbur plant response rating [5, 27]: 40
- Plant response rating, Sandbur ([5]; Rate 250 g/ha): 40
- Plant response rating, Sandbur ([5]; Rate 500 g/ha): 98
- Wheat plant response rating [6, 28]: 5
- Wheat plant response rating (0 to 10 scale) [6, 20]: 6
- Wheat plant response rating [6, 21]: 8
- Wheat plant response rating [6, 22]: 8
- Plant response rating, Wheat [6, 24]: 6
- Wheat plant response rating [6, 25]: 7
- Velvetleaf plant response rating [7, 28]: 3
- Velvetleaf plant response rating (0 to 10 scale) [7, 20]: 7
- Velvetleaf plant response rating [7, 21]: 10
- Velvetleaf plant response rating [7, 22]: 10
- Plant response rating, Velvetleaf [7, 24]: 5
- Velvetleaf plant response rating [7, 25]: 5
- Plant response rating, Spanishneedles [8, 29]: 0
- Plant response rating, Spanishneedles [8, 30]: 0
- Spanishneedles plant response rating [8, 26]: 0
- Spanishneedles plant response rating [8, 27]: 0
- Plant response rating, Spanishneedles ([8]; Rate 250 g/ha): 40
- Plant response rating, Spanishneedles ([8]; Rate 500 g/ha): 85
- Plant response rating, Wild oat [9, 14]: 65
- Plant response rating, Wild oat [9, 15]: 70
- Wild oat plant response rating (0 to 100 scale) [9]: 70
- Plant response rating, Green foxtail [10, 14]: 100
- Plant response rating, Green foxtail [10, 15]: 100
- Green foxtail plant response rating (0 to 100 scale) [10]: 100
- Plant response rating, Barley (winter) [11, 14]: 60
- Plant response rating, Barley (winter) [11, 15]: 60
- Barley (winter) plant response rating (0 to 100 scale) [11]: 70
- Plant response rating, Blackgrass [12, 14]: 60
- Plant response rating, Blackgrass [12, 15]: 60
- Blackgrass plant response rating (0 to 100 scale) [12]: 85
- Plant response rating, Wheat (winter) ([13]; Rate 62 g/ha): 80
- Plant response rating, Wheat (winter) ([13]; Rate 125 g/ha): 75
